Like-named read-outs stand apart in the source and are kept apart here.
Assay: log P determination by HPLC on reversed-phase column (C 18), EEC Directive 79/831 V.A8
Type: physicochemical
Details: for logP (Physical data, Table 1): labelled a): acidic range, 0.1% aqueous phosphoric acid/acetonitrile gradient, 43° C.
Description: The log P values given in Table 1 were determined in accordance with EEC Directive 79/831 V.A8 by HPLC (High Performance Liquid Chromatography) on a reversed-phase column (C 18). Temperature: 43° C.
(a) Mobile phases for the determination in the acidic range: 0.1% aqueous phosphoric acid, acetonitrile; linear gradient of 10% acetonitrile to 90% acetonitrile—the corresponding data in Table 1 are labelled ^a).
(b) Mobile phases for the determination in the neutral range: 0.01 molar aqueous phosphate buffer solution, acetonitrile, linear gradient from 10% acetonitrile to 90% acetonitrile—the corresponding data in Table 1 are labelled ^b).

[1] = reversed-phase HPLC column (C 18), mobile-phase label not given, read-out: Log P (preparation examples)
[2] = reversed-phase HPLC column (C 18), labelled a): acidic range; read-out: logP)
[3] = reversed-phase HPLC column (C 18), labelled a): acidic range, starting materials of formula (II)/(IIA), read-out: logP (Physical data, Table 2)

SMILES | logP (Physical data, Table 1) | further results
CCn1ncc(C(=O)c2ccc(Cl)c(OCCn3nc(OC)n(CC)c3=O)c2C)c1O [Example 25] | logP = 1.88^a) | 
COC(=O)c1ccc(Cl)c(OCCCl)c1C [methyl 4-chloro-3-(2-chloro-ethoxy)-2-methyl-benzoate] |  | chromatographic logP [1]: 3.52
COC(=O)c1ccc(Cl)c(O)c1C [methyl 4-chloro-3-hydroxy-2-methyl-benzoate] |  | chromatographic logP [1]: 2.14
CCn1ncc(C(=O)c2ccc(Cl)c(OCCn3nc(SC)n(C)c3=O)c2C)c1O [Example 27] | logP = 2.11^a) | 
CSc1ccc(C(=O)C2=C(O)CCCC2=O)c(Cl)c1OCCn1nc(SC)n(C)c1=O [Example 34] | logP = 2.36^a) | 
CCn1c(OC)nn(CCOc2c(Cl)ccc(C(=O)C3=C(O)CCCC3=O)c2Cl)c1=O [Example 22] | logP = 2.16^a) | 
O=C1CC[C@@H](COc2c(Br)ccc(C(=O)C3=C(O)CCCC3=O)c2Br)N1 [Example 61] | (S enantiomer) logP = 2.02^a) | 
CCn1c(OC)nn(CCOc2c(Cl)ccc(C(=O)C3=C(O)CCCC3=O)c2C)c1=O [Example 31] | logP = 2.38^a) | 
CCOC(=O)c1ccc(Cl)c(OCCBr)c1Cl [ethyl 2,4-dichloro-3-(2-bromo-ethoxy)-benzoate] |  | chromatographic logP [2]: 3.98
CCn1ncc(C(=O)c2ccc(Cl)c(OCCn3nc(OC)n(CC)c3=O)c2C)c1O [Example 29] | logP = 2.12^a) | 
CCn1ncc(C(=O)c2ccc(Cl)c(OCCn3nc(C)n(C)c3=O)c2C)c1OCc1ccc(Br)cc1 [Example 12] | logP = 2.07^a) | 
Cc1nn(CCOc2c(Cl)ccc(C(=O)Cl)c2Cl)c(=O)n1C [II-5, 2,4-dichloro-3-[2-(3′,4′-dimethyl-1′,2′,4′-1H-triazolin-5′-on-1′-yl)-ethoxy]-2-benzoyl chloride] |  | chromatographic logP [1]: 1.24
CN1C(=O)CC[C@H]1COc1c(Cl)ccc(C(=O)C2=C(O)CCCC2=O)c1Cl [Example 39] | (S enantiomer) logP = 2.12^a) | 
COCc1nn(CCOc2c(Cl)ccc(C(=O)C3=C(O)CCCC3=O)c2C)c(=O)n1C [Example 32] | logP = 2.04^a) | 
COCc1nn(CCOc2c(Cl)ccc(C(=O)C3=C(O)CCCC3=O)c2Cl)c(=O)n1C [Example 19] | logP = 2.06^a) | 
CCn1ncc(C(=O)c2ccc(SC)c(OC[C@@H]3CCC(=O)N3C)c2Cl)c1O [Example 45] | (S enantiomer) logP = 1.68^a) | 
CCn1ncc(C(=O)c2ccc(Cl)c(OCCn3nc(OC)n(CC)c3=O)c2Cl)c1O [Example 17] | logP = 1.93^a) | 
COC(=O)c1ccc(SC)c(OCCn2nc(C)n(C)c2=O)c1C [II-2, methyl 3-[2-(3′,4′-dimethyl-1′,2′,4′-1H-triazolin-5′-on-1′-yl)-ethoxy]-2-methyl-4-methylthio-benzoate] |  | chromatographic logP [1]: 1.89
CCn1ncc(C(=O)c2ccc(Cl)c(OCCn3nc(OC)n(C)c3=O)c2Cl)c1O [Example 15] | logP = 1.69^a) | 
CCOC(=O)c1ccc(Cl)c(OC[C@@H]2CCC(=O)N2)c1Cl [II-61, ethyl (S)-2,4-dichloro-3-[(2-oxo-pyrrolidin-5-yl)-methoxy]-benzoate] |  | chromatographic logP [2]: 2.14; chromatographic logP [3]: 2.15

SMILES | logP (Physical data, Table 1) | further results
Cc1c(C(=O)C2=C(O)CCCC2=O)ccc(Cl)c1OC[C@@H]1CCC(=O)N1 [Example 36] | (S enantiomer) logP = 1.94^a) | 
CCOC(=O)c1ccc(Cl)c(OCCn2nc(SC)n(C)c2=O)c1Cl [II-35, ethyl 2,4-dichloro-3-[2-(3-methylthio-4-methyl-5-oxo-1,2,4-triazolin-1-yl)-ethoxy]-benzoate] |  | chromatographic logP [2]: 2.66; chromatographic logP [3]: 2.66
CSc1nn(CCOc2c(Cl)ccc(C(=O)C3=C(O)CCCC3=O)c2Cl)c(=O)n1C [Example 21] | logP = 2.39^a) | 
CCn1ncc(C(=O)c2ccc(SC)c(OC[C@@H]3CCC(=O)N3)c2Cl)c1O [Example 20] | (S enantiomer) logP = 1.60^a) | 
COC(=O)c1ccc(Cl)c(OCCn2nc(C)n(C)c2=O)c1C [II-1, methyl 4-chloro-3-[2-(3′,4′-dimethyl-1′,2′,4′-1H-triazolin-5′-on-1′-yl)-ethoxy]-2-methyl-benzoate] |  | chromatographic logP [1]: 1.94
CSc1ccc(C(=O)C2=C(O)CCCC2=O)c(Cl)c1OC[C@@H]1CCC(=O)N1C [Example 46] | (S enantiomer) logP = 2.13^a) | 
CCn1ncc(C(=O)c2ccc(Br)c(OC[C@@H]3CCC(=O)N3)c2Br)c1O [Example 60] | (S enantiomer) logP = 1.56^a) | 
CCOC(=O)c1ccc(S(C)(=O)=O)c(OCCn2nc(C)n(C)c2=O)c1C [II-3, ethyl 3-[2-(3′,4′-dimethyl-1′,2′,4′-1H-triazolin-5′-on-1′-yl)-ethoxy]-2-methyl-4-methylsulphonyl-benzoate] |  | chromatographic logP [1]: 1.76
CCn1ncc(C(=O)c2ccc(SC)c(OCCn3nc(C)n(C)c3=O)c2Cl)c1OCc1ccc(Br)cc1 [Example 14] | logP = 2.05^a) | 
CCn1ncc(C(=O)c2ccc(Cl)c(OCCn3nc(SC)n(C)c3=O)c2Cl)c1O [Example 16] | logP = 1.92^a) | 
COCc1nn(CCOc2c(SC)ccc(C(=O)C3=C(O)CCCC3=O)c2Cl)c(=O)n1C [Example 44] | logP = 2.05^a) | 
CSc1nn(CCOc2c(Cl)ccc(C(=O)C3=C(O)CCCC3=O)c2C)c(=O)n1C [Example 28] | logP = 2.38^a) | 
CCn1ncc(C(=O)c2ccc(Cl)c(OC[C@@H]3CCC(=O)N3)c2Cl)c1O [Example 48] | (S enantiomer) logP = 1.51^a) | 
CCn1ncc(C(=O)c2ccc(SC)c(OCCn3nc(SC)n(C)c3=O)c2Cl)c1O [Example 33] | logP = 1.97^a) | 
CSc1ccc(C(=O)C2=C(O)CCCC2=O)c(Cl)c1OC[C@@H]1CCC(=O)N1 [Example 24] | (S enantiomer) logP = 1.98^a) | 
CCn1ncc(C(=O)c2ccc(Cl)c(OC[C@@H]3CCC(=O)N3C)c2C)c1O [Example 37] | (S enantiomer) logP = 1.85^a) | 
CCn1ncc(C(=O)c2ccc(Cl)c(OC[C@@H]3CCC(=O)N3)c2C)c1O [Example 35] | (S enantiomer) [α]D^20 = +2.3 logP = 1.67^a) | 
Cc1c(C(=O)O)ccc(Cl)c1OCCn1nc(C)n(C)c1=O [II-4, 4-chloro-3-[2-(3′,4′-dimethyl-1′,2′,4′-1H-triazolin-5′-on-1′-yl)-ethoxy]-2-methyl-benzoic acid] |  | chromatographic logP [1]: 1.37
CCn1ncc(C(=O)c2ccc(Cl)c(OCCn3nc(COC)n(C)c3=O)c2C)c1O [Example 30] | logP = 1.78^a) | 
CCn1c(OC)nn(CCOc2c(Cl)ccc(C(=O)C3=C(O)CCCC3=O)c2C)c1=O [Example 26] | logP = 2.15^a) | 
